Experimental data from ChEMBL document CHEMBL1136525, “6,7-dihydroxyisoquinoline-3-carboxylic acids are potent inhibitors on the binding of insulin-like growth factor (IGF) to IGF-binding proteins: optimization of the 1-position benzoyl side chain” (Bioorg Med Chem Lett, 2003).
pKi: −log10 of the molar value.

Molecular target: Insulin-like growth factor-binding protein 3 (Homo sapiens, UniProt P17936)
Test: Ability to displace Insulin-Like Growth Factor (IGF-I) from its binding to human insulin-like growth factor binding protein 3 (hIGFBP-3)

Chain of Insulin-like growth factor-binding protein 3 (P17936 whole entry): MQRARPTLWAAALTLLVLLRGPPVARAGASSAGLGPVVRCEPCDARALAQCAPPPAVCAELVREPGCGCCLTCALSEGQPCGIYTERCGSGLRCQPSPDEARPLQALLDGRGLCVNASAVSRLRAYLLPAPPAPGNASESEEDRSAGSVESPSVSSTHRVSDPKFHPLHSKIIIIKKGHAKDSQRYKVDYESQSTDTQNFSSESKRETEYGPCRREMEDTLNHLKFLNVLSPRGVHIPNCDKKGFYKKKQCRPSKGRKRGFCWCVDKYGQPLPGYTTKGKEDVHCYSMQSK

pKi	SMILES
6.89	Nc1ccc(C(=O)c2nc(C(=O)O)cc3cc(O)c(O)cc23)cc1
7.29	O=C(O)c1cc2cc(O)c(O)cc2c(C(=O)c2ccc(F)c(F)c2)n1
< 5.00	CS(=O)(=O)Nc1cc2cc(C(=O)O)nc(C(=O)c3ccc4c(c3)OCO4)c2cc1O
7.54	O=C(O)c1cc2cc(O)c(O)cc2c(C(=O)c2ccc(Cl)c(Cl)c2)n1
7.42	O=C(O)c1cc2cc(O)c(O)cc2c(C(=O)c2ccc(C(F)(F)F)cc2)n1
6.96	O=C(O)c1cc2cc(O)c(O)cc2c(C(=O)c2cccc(F)c2)n1
7.49	O=C(O)c1cc2cc(O)c(O)cc2c(C(=O)c2ccc([N+](=O)[O-])cc2)n1
6.96	CS(=O)(=O)Nc1ccc(C(=O)c2nc(C(=O)O)cc3cc(O)c(O)cc23)cc1
6.96	O=C(O)c1cc2cc(O)c(O)cc2c(C(=O)c2ccccc2Cl)n1

Continued, compound first:

SMILES	pKi
O=C(O)c1cc2cc(O)c(O)cc2c(C(O)c2ccc(Oc3ccccc3)cc2)n1 (configuration not stated)	7.49
O=C(O)c1cc2cc(O)c(O)cc2c(C(=O)c2ccc(Oc3cc(Cl)cc(Cl)c3)c(F)c2)n1	8.05
O=C(O)c1cc2cc(O)c(O)cc2c(C(=O)c2ccc(Oc3ccc(Cl)c(Cl)c3)c(F)c2)n1	7.92
O=C(O)c1cc2cc(O)c(O)cc2c(Cc2ccc3c(c2)OCO3)n1	7.14
Cc1cc(C)c(C(O)c2nc(C(=O)O)cc3cc(O)c(O)cc23)c(C)c1 (configuration not stated)	7.96
O=C(O)c1cc2cc(O)c(O)cc2c(C(=O)c2ccc(Oc3cccc(Cl)c3)c(F)c2)n1	7.96
O=C(O)c1cc2cc(O)c(O)cc2c(C(=O)c2ccc(Sc3ccc(Cl)cc3)c(F)c2)n1	7.51
Cc1cc(C)c(C(=O)c2nc(C(=O)O)cc3cc(O)c(O)cc23)c(C)c1	7.00
O=C(O)c1cc2cc(O)c(O)cc2c(C(O)c2cccc(F)c2)n1 (configuration not stated)	7.62
O=C(O)c1cc2cc(O)c(O)cc2c(C(O)c2ccccc2Cl)n1 (configuration not stated)	7.60
Cc1ccc(Oc2ccc(C(=O)c3nc(C(=O)O)cc4cc(O)c(O)cc34)cc2F)cc1	8.03
O=C(O)c1cc2cc(O)c(O)cc2c(C(=O)c2ccc(Oc3ccc(-c4ccccc4)cc3)c(F)c2)n1	7.49
O=C(O)c1cc2cc(O)c(O)cc2c(C(=O)c2ccc(Oc3ccc(C(F)(F)F)cc3)c(F)c2)n1	7.49
Nc1cc2cc(C(=O)O)nc(C(=O)c3ccc(O)c(O)c3)c2cc1O	7.22
O=C(O)c1cc2cc(O)c(O)cc2c(C(=O)c2ccc(Oc3ccc(Cl)cc3)c(F)c2)n1	7.70
CCCCC(CC)CNc1ccc(C(=O)c2nc(C(=O)O)cc3cc(O)c(O)cc23)cc1F (configuration not stated)	7.21
Nc1cc2cc(C(=O)O)nc(C(=O)c3ccc4c(c3)OCO4)c2cc1O	6.07
O=C(O)c1cc2cc(O)c(O)cc2c(C(O)c2ccc(C(F)(F)F)cc2)n1 (configuration not stated)	7.74
